In US5914313A, “1-[4-hydroxy-5-aminoethyloxy-N^2 -(10,12-dimethyl-1-oxotetradecyl)ornithine]-5-(3-hydroxyglutamine)-6-(3- hydroxyproline)echinocandin B, other aminoalkyl derivatives and salts thereof” (Merck & Co., Inc., priority 1993, dated 1999):

Tests used:
Candida albicans MY 1055 [1] = assay: In vivo effectiveness: recoverable Candida CFU in kidneys of infected mice; details: 0.4 mg/kg I.P. twice daily for four consecutive days; DBA/2 mice; kidneys after seven days
Protocol: Growth from an overnight SDA culture of Candida albicans MY 1055 was suspended in sterile saline and the cell concentration determined by hemacytometer count and the cell suspension adjusted to 3.75×10^5 cells/ml. Then 0.2 milliliter of this suspension was administered I.V. in the tail vein of mice so that the final inoculum was 7.5×10^4 cells/mouse.
The assay then was carried out by administering aqueous solutions of Compound I (R1 =--CH2 CH2 NH2) at various concentrations intraperitoneally (I.P.), twice daily (b.i.d.) for four consecutive days to 18 to 20 gram female DBA/2 mice, which previously had been infected with Candida albicans (MY 1055) in the manner described above. Distilled water was administered I.P. to C. albicans challenged mice as controls. After seven days, the mice were sacrificed by carbon dioxide gas, paired kidneys were removed aseptically and placed in sterile polyethylene bags containing 5 milliters of sterile saline. The kidneys were homogenized in the bags, serially diluted in sterile saline and aliquots spread on the surface of SDA plates. The plates were incubated at 35° C. for 48 hours and yeast colonies were enumerated for determination of colony forming units (CFU) per-gram of kidneys.

Candida albicans MY 1055 [2] = assay: Minimum fungicidal concentration (MFC), microbroth dilution assay in YNBD; type: cell-based; details: YNBD medium; MFC = lowest concentration showing no growth or less than 4 colonies per spot
Text: (§1) The compounds of the present invention are active against many fungi and as previously indicated particularly against Candida species. The antifungal properties may be illustrated with the minimum fungicidal concentration (MFC) determination against certain Candida organisms in a microbroth dilution assay carried out in a Yeast Nitrogen Base (Difco) medium with 1 percent dextrose (YNBD).
(§2) In carrying out the assay, Compound I was solubilized in 10 percent dimethyl sulfoxide (DMSO) and diluted to 2560 μg/ml. The compound was then diluted to 256 μg/ml in YNBD. 0.15 mL of the suspension was dispensed to the top row of a 96-well plate (each well containing 0.15 ml of YNBD) resulting in a drug concentration of 128 μg/ml. Two-fold dilutions were then made from the top row to obtain final drug concentrations ranging from 128 to 0.06 μg/ml.
(§3) The yeast cultures, maintained on Sabouraud dextrose agar were transferred to YN broth (Difco) and incubated overnight at 35° C. with shaking (250 rpm). After incubation, each culture was diluted in sterile water to yield a final concentration of 1-5×10^6 colony forming units (CFU)/ml.
(§4) 96-well microplates were inoculated using a MIC-2000 (Dynatech) which delivers […] per well yielding a final inoculum per well of 1.5-7.5×10^3 cells. The microplates were incubated at 35° C. for 24 hours. The minimum inhibitory concentrations (MICs) were recorded as the lowest concentrations of drug showing no visible growth.
(§5) After recording the MIC, the plates were shaken to resuspend the cells. Thereafter, 1.5 μl samples from the wells in the 96-well microplate were transferred to a single well tray containing Sabouraud dextrose agar. The inoculated trays were incubated 24 hours at 28° C. and then read for minimum fungicidal concentration (MFC). MFC is defined as the lowest concentration of drug showing no growth or less than 4 colonies per spot.

[3] = system: Candida tropicalis MY 1012; assay: as above; type: cell-based; details: YNBD medium; MFC = lowest concentration showing no growth or less than 4 colonies per spot
Text: as §1, §2, §3, §4, §5

Candida albicans MY 1750 = assay: Minimum fungicidal concentration (MFC), separate similar experiment; type: cell-based
Text: as §1
as §2, with “0.06 μg/ml. […]” for “0.06 μg/ml.”
96-well microplates were inoculated using a MIC-2000 (Dynatech) which delivers […] per well yielding a final inoculum per well of 1.5-7.5×10^3 cells. […] The minimum inhibitory concentrations (MICs) were recorded as the lowest concentrations of drug showing no visible growth.
After recording the MIC, the plates were shaken to resuspend the cells. […] The inoculated trays were incubated 24 hours at 28° C. and then read for minimum fungicidal concentration (MFC). […]

human blood cells = assay: Red blood cell lysis, minimum lytic concentration (MLC); type: cell-based; details: 2 hours at room temperature, lowest concentration giving complete or partial lysis, tested 400 to 0.20 μg/ml
Text: A harmful and potentially fatal side reaction of a number of drugs including certain antibiotically active echinocandin compounds is red blood cell lysis. […] The blood cell lysis property may be seen in the determination carried out in the following manner.
The blood employed is a 4 percent suspension of freshly drawn heparinized blood prepared by adding 2 milliliters of blood to 50 milliliters of sterile 5 percent dextrose.
Compoufid I was solubilized in a small volume of dimethylsulfoxide (DMSO) that was then diluted with distilled water to a final concentration of 5 percent DMSO to obtain a drug solution of 4.0 mg/ml. A 0.2 milliliter amount of the drug solution was added to 1.4 milliliters of sterile 5 percent dextrose to obtain the test solution. A diluent control was also prepared.
A 96-well microtiter plate with a well volume of 0.35 ml was used for the assay. Columns 2-12 were filled with 150 µl of sterile 5 percent dextrose. Then, 300 μl of test solutions were dispensed into the wells in column 1 and serially two-fold diluted in 5 percent dextrose to yield final test concentrations of from 400 to 0.20 μg/ml. 38 μl of red blood cell suspension were added to each well, the plate was gently agitated to mix the well contents and incubated at room temperature for 2 hours, and thereafter observed to determine extent of hemolysis as indicated by complete or partial clearing (lysis).

Pneumocystis carinii = Pneumocystis carinii pneumonia in immunosuppressed rats, reduction of cysts; type: in vivo, Sprague-Dawley rats; details: subcutaneous, twice daily for four days
Protocol: The compounds of the present invention may also be useful for inhibiting or alleviating Pneumocvstis carinii infections in immune compromised patients. […] Before drug treatment, two rats are sacrificed to confirm the presence of Pneumocystis carinii pneumonia (PCP). Five rats (weighing approximately 150 grams) are injected twice daily for four days subcutaneously (sc) with Compound I in 0.25 ml of vehicle (distilled water). A vehicle control is also carried out. All animals continue to receive dexasone in the drinking water and low protein diet during the treatment period. At the completion of the treatment, all animals are sacrificed, the lungs are removed and processed, and the extent of disease determined by microscopic examination of stained slides for the presence of cysts.
The dosage required for 90 percent reduction of cysts with representative compounds may be seen in the following table: […]

Substance | reduction of recoverable Candida CFUs (kidneys) (Candida albicans MY 1055 [1]) | MFC C. albicans MY 1055 (Candida albicans MY 1055 [2]) [µg/mL] | MFC C. tropicalis MY 1012 [3] [µg/mL] | MFC C. albicans MY 1750 (Candida albicans MY 1750) [µg/mL] | MLC (minimum lytic concentration) (human blood cells) [µg/mL] | dosage required for 90 percent reduction of cysts (Pneumocystis carinii) [mg/kg]
1-[4-hydroxy-5-aminoethyloxy-N^2 -(10,12-dimethyl-1-oxotetradecyl)ornithine]-5-(3-hydroxyglutamine)-6-(3-hydroxyproline) echinocandin B trifluoroacetate [--CH2 CH2 NH2 / DMTD] | greater than 99% | 0.125 | 0.25 | – | – | –
Glycylaminoethyloxy Ether as the Trifluoroacetate [--CH2 CH2 NHCOCH2 NH2 / DMTD] | – | 1.0 | 0.5 | 0.50 | > 400 | 0.04
